{"source": "paper PMC4416907", "about": "“An Unexpected Mode Of Binding Defines BMS948 as A Full Retinoic Acid Receptor β (RARβ, NR1B2) Selective Agonist” (PLoS ONE, 2015)", "key": {"[1]": {"tested_on": "RARβ", "conditions": "cited from earlier work"}, "[2]": {"tested_on": "RARγ", "conditions": "also personal data not shown; cited from earlier work"}, "[3]": {"target": "T1, RARα (Homo sapiens, UniProt P10276)", "T1 construct": "expressed in transfected cells; host or cells: HeLa", "T1 sequence (P10276 1-462)": "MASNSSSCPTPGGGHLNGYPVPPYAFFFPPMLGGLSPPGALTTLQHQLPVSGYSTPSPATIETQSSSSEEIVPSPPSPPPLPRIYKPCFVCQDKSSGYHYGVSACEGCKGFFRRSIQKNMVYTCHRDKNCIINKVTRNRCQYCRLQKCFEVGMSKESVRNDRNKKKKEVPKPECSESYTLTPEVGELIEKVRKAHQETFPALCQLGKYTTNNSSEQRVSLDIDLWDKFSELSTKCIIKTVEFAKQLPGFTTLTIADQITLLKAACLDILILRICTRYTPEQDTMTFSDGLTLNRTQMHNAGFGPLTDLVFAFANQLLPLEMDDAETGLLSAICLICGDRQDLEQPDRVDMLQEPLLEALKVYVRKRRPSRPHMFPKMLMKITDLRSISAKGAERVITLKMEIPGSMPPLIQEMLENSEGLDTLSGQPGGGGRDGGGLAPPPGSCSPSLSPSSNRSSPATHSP", "assay": "Transient transactivation assay, antagonist mode (competition with TTNPB-induced activity)", "type": "cell-based", "conditions": "reporter activated with 3 nM TTNPB (100%); retinoids at 1 μM or increasing amounts", "protocol": "(§1) To this end, transient transactivation assays were conducted in order to assess the ability of the synthetic retinoids to affect TTNPB-induced RAR activity. […] Competition curves with increasing concentrations of BMS411 yielded an IC50 of roughly 30 nM for RARα in keeping with the high affinity of this compound for this receptor subtype (Fig 3D). […] Overall, our data lead to the general conclusion that BMS948 is a full RARβ-selective agonist.\n(§2) Fig 3 BMS948 is an RARβ-selective ligands. (A to C) Transient transactivation assays as in Fig 2 to assess the antagonist potential of synthetic RAR ligands (RARα (A), RARβ (B) or RARγ (C)).\n(§3) HeLa cells were cultured in DMEM with Glutamax and 10% (v/v) FCS and transfected using JetPei transfectant (Ozyme). After 24 h, the medium was changed to a medium containing the indicated ligands or vehicle. Cells were lysed and assayed for reporter expression 48 h after transfection. The luciferase assay system was used according to the manufacturer’s instruction (Promega). In each case results were normalized to coexpressed β–galactosidase. Each transfection was carried out in duplicate and repeated each three to six times."}, "[4]": {"tested_on": "T2, RARβ-SMRT interaction", "T2 construct": "expressed in transfected cells; host or cells: HeLa", "assay": "Mammalian two-hybrid assay Gal-SMRT / VP16-RARβLBD in HeLa cells", "type": "cell-based", "conditions": "BMS compounds at 1 μM, TTNPB 10 nM; 100% = absence of ligand", "source_text": "(§4) Supplementary file pone.0123195.s005.eps: S5 Fig Molecular basis of BMS641 partial activity. According to the current model of gene regulation by RARs, the agonistic property of a given retinoid depends on its ability to induce coregulator recruitment. RAR agonists dissociate corepressors (such as SMRT) and induce the recruitment coactivators (such as TIF2), resulting in transactivation. […] BMS641 was therefore categorized as a partial RARβ agonist. To further characterize the partial activity of BMS641, we used two-hybrid assays to monitor the interaction between RARβ and transcriptional coregulators in the presence of various retinoids. In these assays, a chimeric luciferase-based reporter gene ((17 m)5x-βGlob-Luc) is transfected together with two expression vectors. One expresses a fusion protein (Gal-TIF2 or Gal-SMRT) that binds through the Gal DNA binding domain (Gal) to the pentamer of the “17m” DNA recognition site in the reporter gene and contains the nuclear receptor interacting domain of the coregulator. The other vector expresses a second fusion protein composed of the VP16 acidic transcription activation domain, and the LBD of RARβ. […] Strikingly, the RARβ-SMRT interaction was maintained in the presence of BMS641, in agreement with the partial agonistic activity of this compound. […] BMS641 induces reduced coactivator recruitment, but cannot dissociate corepressors. […]"}, "[5]": {"tested_on": "T3, hRARβL298F", "T3 construct": "expressed in transfected cells; host or cells: HeLa", "assay": "Transient transactivation assay with mutant hRARβL298F in HeLa cells", "type": "cell-based, human", "protocol": "The construct was verified by DNA sequencing.\nas §3\n(EPS) Click here for additional data file."}, "[6]": {"tested_on": "T4, RARγ→β", "T4 construct": "expressed in transfected cells; host or cells: HeLa", "assay": "Transient transactivation assay with chimeric LBP mutant RARγ→β in HeLa cells", "type": "cell-based", "conditions": "10^–9 to 10^–6 M; 100% = TTNPB at 10nM", "source_text": "(§5) Supplementary file pone.0123195.s004.eps: S4 Fig The methionine 272 of RARγ LBP is a most important discriminatory element for the RARβ-specific response to BMS948. […] To investigate the role of these residues in the RARβ–specific response to BMS948, we compared the agonistic and antagonistic potentials of this compound for RARβ and RARγ, as well as chimeric RAR mutants in which LBPs were interconverted (denoted RARβ→γ and RARγ→β). Dose-response curves were established from transient transfection in HeLa cells of these proteins and a (RARE)3x-tk-luciferase reporter gene as described in Figs 2 and 3. […] (A) HeLa cells were transiently cotransfected with the reporter (RARE)3x-tk-Luc and RARβ (open circles), RARγ (closed diamonds), RARγ→β in which the methionine residue 272 in RARγ LBP is replaced by an isoleucine residue (open squares), or RARβ→γ in which the isoleucine residue 263 in RARβ LBP is replaced by a methionine residue (closed triangles) to assess the agonist potential of BMS948. […] (B) Transient transfection assays in HeLa cells with the reporter (RARE)3x-tk-Luc and RARβ→γ as in (A) to assess the antagonist potential of BMS948 and BMS493. […] (EPS) Click here for additional data file."}, "[7]": {"tested_on": "T5, RARβ-TIF2 interaction", "T5 construct": "expressed in transfected cells; host or cells: HeLa", "assay": "Mammalian two-hybrid assay Gal-TIF2 / VP16-RARβLBD in HeLa cells", "type": "cell-based", "conditions": "BMS compounds at 1 μM, TTNPB 10 nM", "source_text": "as §4"}, "[8]": {"tested_on": "T6, human RARα1", "T6 construct": "expressed in transfected cells; host or cells: HeLa", "assay": "Transient transactivation reporter assay, (RARE)3x-tk-luciferase in HeLa cells, agonist mode", "type": "cell-based", "conditions": "for agonistic activity on RARα-mediated transactivation: HeLa cells, ligand at single selective concentration, compared with 10 nM TTNPB (100%)", "source_text": "(§6) To evaluate the activity of a panel of synthetic retinoids (Fig 1) on RAR-mediated transactivation, we used HeLa cells transiently transfected with human RARα1,-β2, or—γ2 and a (RARE)3x-tk-luciferase reporter gene. Well characterized full agonist and antagonist retinoids were also used as reference compounds (S2 Fig). […] To further characterize the activation profile of BMS compounds, transfected cells were exposed to a range of ligand concentrations to establish dose-response curves.\n(§7) (A to C) HeLa cells were transiently cotransfected with the reporter (RARE)3x-tk-Luc and RARα (A), RARβ (B) or RARγ (C), as indicated, to assess the RAR agonist potential of synthetic RAR ligands.\nas §3"}, "[9]": {"target": "T7, human RARβ2 (Homo sapiens, UniProt P10826)", "T7 construct": "expressed in transfected cells; host or cells: HeLa", "T7 sequence (P10826 1-448 isoform P10826-2)": "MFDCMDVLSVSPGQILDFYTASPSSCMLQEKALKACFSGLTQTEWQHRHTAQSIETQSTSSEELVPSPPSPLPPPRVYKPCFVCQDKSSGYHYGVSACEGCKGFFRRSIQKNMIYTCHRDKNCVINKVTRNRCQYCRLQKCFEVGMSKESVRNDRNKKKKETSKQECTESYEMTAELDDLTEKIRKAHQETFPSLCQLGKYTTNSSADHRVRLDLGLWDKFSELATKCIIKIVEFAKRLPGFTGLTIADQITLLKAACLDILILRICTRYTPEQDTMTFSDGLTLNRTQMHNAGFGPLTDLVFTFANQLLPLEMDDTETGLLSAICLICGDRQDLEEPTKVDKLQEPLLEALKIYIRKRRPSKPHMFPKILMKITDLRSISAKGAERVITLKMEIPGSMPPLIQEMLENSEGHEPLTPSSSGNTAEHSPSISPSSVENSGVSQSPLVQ", "assay": "Transient transactivation reporter assay, (RARE)3x-tk-luciferase in HeLa cells, agonist mode", "type": "cell-based", "source_text": "as §6, §7, §3"}, "[10]": {"tested_on": "T8, human RARγ2", "T8 construct": "expressed in transfected cells; host or cells: HeLa", "assay": "Transient transactivation reporter assay, (RARE)3x-tk-luciferase in HeLa cells, agonist mode", "type": "cell-based", "source_text": "as §6, §7, §3"}, "[11]": {"tested_on": "T9, RARβ→γ", "T9 construct": "expressed in transfected cells; host or cells: HeLa", "assay": "Transient transactivation assay with chimeric LBP mutant RARβ→γ in HeLa cells", "type": "cell-based", "source_text": "as §5"}, "[12]": {"tested_on": "T10, RARβ", "T10 construct": "expressed in transfected cells; host or cells: HeLa", "assay": "Transient transactivation assay, antagonist mode (competition with TTNPB-induced activity)", "type": "cell-based, human", "conditions": "reporter activated with 3 nM TTNPB (100%); retinoids at 1 μM or increasing amounts", "protocol": "as §1, §2, §3"}, "[13]": {"tested_on": "T11, RARγ", "T11 construct": "expressed in transfected cells; host or cells: HeLa", "assay": "Transient transactivation assay, antagonist mode (competition with TTNPB-induced activity)", "type": "cell-based, human", "conditions": "reporter activated with 3 nM TTNPB (100%); retinoids at 1 μM or increasing amounts", "protocol": "as §1, §2, §3"}, "[14]": {"conditions": "10^–10 to 10^–6 M, only at the highest ligand concentration used (1 μM)"}}}
{"smiles": "CN1c2cc3c(cc2N=C(c2ccc(C(=O)O)cc2)c2ccccc21)C(C)(C)CCC3(C)C", "note": "[LE135]", "values": [{"measurement": "reported activity on RARβ", "setting": "[1]", "value": "antagonist showing some selectivity for RARβ"}, {"measurement": "reported activity on RARγ", "setting": "[2]", "value": "some RARγ partial agonistic activity"}]}
{"smiles": "O=C(O)c1ccc(NC(=O)c2ccc3cccc(-c4ccccc4)c3c2)cc1", "note": "[BMS948]", "values": [{"measurement": "antagonistic activity on TTNPB-induced RARα transactivation", "setting": "[3]", "value": "very weak"}, {"measurement": "RARβ-SMRT interaction (corepressor binding)", "setting": "[4]", "value": "decreased"}, {"measurement": "efficacy on RARβL298F in dose-response curves", "setting": "[5]; S6 Fig, increasing concentrations", "value": 70, "unit": "%"}, {"measurement": "transcriptional activity on RARβL298F as compared to TTNPB", "setting": "[5]; retinoids at 0.1 μM, 10 nM TTNPB = 100% with wild-type hRARβ", "value": "50–60%"}, {"measurement": "agonist potential on RARγ→β", "setting": "[6]", "value": "potent full agonist"}, {"measurement": "RARβ-TIF2 interaction (coactivator recruitment)", "setting": "[7]", "value": "optimal"}, {"measurement": "activation of RARα in dose-response curves", "setting": "[8]; [14]", "value": "very weakly"}, {"measurement": "agonistic activity on RARα-mediated transactivation", "setting": "[8]", "value": "very weak activity"}, {"measurement": "EC50", "setting": "[9]; dose-response 10^–10 to 10^–6 M, read-out: EC50 transactivation for RARβ", "value": "~100", "unit": "nM"}, {"measurement": "agonistic activity on RARβ-mediated transactivation", "setting": "[9]; ligand at single selective concentration, compared with 10 nM TTNPB (100%)", "value": "full RARβ-agonist"}, {"measurement": "activation of RARγ in dose-response curves", "setting": "[10]; [14]", "value": "very weakly"}, {"measurement": "agonistic activity on RARγ-mediated transactivation", "setting": "[10]; HeLa cells, ligand at single selective concentration, compared with 10 nM TTNPB (100%)", "value": "very weak activity"}, {"measurement": "antagonist potential on RARβ→γ", "setting": "[11]; 3 nM TTNPB (100%) plus compound at 1 μM", "value": "did not reduce TTNPB-induced activity"}, {"measurement": "agonist potential on RARβ→γ", "setting": "[11]; 10^–9 to 10^–6 M, 100% = TTNPB at 10nM, only at high concentration", "value": "very weak activation"}, {"measurement": "antagonistic activity on TTNPB-induced RARβ transactivation", "setting": "[12]", "value": "no"}, {"measurement": "antagonistic activity on TTNPB-induced RARγ transactivation", "setting": "[13]", "value": "very weak"}]}
{"smiles": "CC1(C)CCC(C)(C)c2cc(C(=O)Nc3ccc(C(=O)O)cc3)ccc21", "note": "[Am580, reference compound]", "values": [{"measurement": "agonistic activity on RARα-mediated transactivation", "setting": "[8]", "value": "full agonistic activity"}]}
